# Measured values taken from PMC11327196, “A phase 1 study to assess the absolute bioavailability, mass balance, pharmacokinetics, metabolism, and excretion of [^14C]-mobocertinib, an oral inhibitor of EGFR exon 20 insertion mutations, in healthy participants” (Investigational New Drugs, 2024).
# Columns and labels:
# [1] = Period 2: urine PK (renal clearance, urinary recovery); type: in vivo, human
# Experimental: After a washout of 8–9 days, participants returned to the clinic for Day − 1 of Period 2. On Day 1 of Period 2, after a fast of ≥ 10 h, participants received a single nominal dose of 160 mg (~ 100 µCi; whole body effective dose of 5.3 mrem for a 70-kg human) [^14C]-mobocertinib as a 70 mL oral solution. The actual doses administered ranged from 161 to 163 mg (92.4 to 93.9 µCi). Participants stayed in the clinic from Day − 1 until a discharge criterion (≥ 80% of the total administered radioactive dose was recovered in urine and feces or excretion of radioactivity in urine and feces combined had declined to ≤ 1% of the total administered dose per day for ≥ 2 consecutive intervals) was met, or up to 10 days postdose. To measure the total radioactivity and concentrations of mobocertinib, AP32960, and AP32914 in whole blood and plasma, 4 blood samples were collected predose, and at 0.5, 1, 2, 3, 4, 5, 6, 8, 12, 24, 36, 48, 72, 96, 120, 144, 168, 192, 216, and 240 h postdose; a fifth blood sample was collected for plasma metabolite profiling at predose and 1, 2, 4, 6, 12, 24, 48, 72, 96, 120, and 168 h postdose. Feces and urine were collected predose (feces within 48 h and urine within 24 h prior to dosing), 0–24 h (urine from 0–12 and 12–24 h), and then at 24-hour intervals up to 240 h postdose or until a discharge criterion was met. […] These 2 participants continued with at-home fecal sample collections. […]
# Plasma, whole blood, and urine samples were assayed for mobocertinib, AP32960, and AP32914 concentrations using liquid chromatography-tandem mass spectrometry (Q2 Solutions, Ithaca, New York, USA). […] Urine and fecal samples were assayed for total radioactivity following the IV dose of [^14C]-mobocertinib in Period 1, and whole blood, plasma, urine, and fecal samples were assayed for total radioactivity following the oral dose of [^14C]-mobocertinib in Period 2 using liquid scintillation counting (LSC; Celerion, Lincoln, Nebraska, USA; LLOQs: Period 1 urine: 0.115–0.118 ng eq/g, feces: 0.720–0.759 ng eq/g; Period 2 whole blood: 87.3–112 ng eq/g, plasma: 116–132 ng eq/mL, urine: 37.8–46.8 ng eq/g, feces: 110–336 ng eq/g across participants). Urine and fecal samples collected in Period 1 that had total radioactivity concentration equivalents below the LLOQ of the Celerion LSC assay were sent to Pharmaron for measurement by AMS (LLOQ: urine: 0.0000253–0.00111 ng eq/g; feces: 0.000404–0.0278 ng eq/g across participants). […]
# PK parameters for analytes in urine and feces were calculated using SAS Version 9.4 and included the cumulative amounts and percentages of the administered radioactive dose excreted as [^14C]-mobocertinib, [^14C]-AP32960, and [^14C]-AP32914 in urine and feces following IV dosing in Period 1 and oral dosing in Period 2. […]
# [2] = Period 2: mass balance (total radioactivity in urine and feces); type: in vivo, human
# Experimental: After a washout of 8–9 days, participants returned to the clinic for Day − 1 of Period 2. On Day 1 of Period 2, after a fast of ≥ 10 h, participants received a single nominal dose of 160 mg (~ 100 µCi; whole body effective dose of 5.3 mrem for a 70-kg human) [^14C]-mobocertinib as a 70 mL oral solution. The actual doses administered ranged from 161 to 163 mg (92.4 to 93.9 µCi). Participants stayed in the clinic from Day − 1 until a discharge criterion (≥ 80% of the total administered radioactive dose was recovered in urine and feces or excretion of radioactivity in urine and feces combined had declined to ≤ 1% of the total administered dose per day for ≥ 2 consecutive intervals) was met, or up to 10 days postdose. To measure the total radioactivity and concentrations of mobocertinib, AP32960, and AP32914 in whole blood and plasma, 4 blood samples were collected predose, and at 0.5, 1, 2, 3, 4, 5, 6, 8, 12, 24, 36, 48, 72, 96, 120, 144, 168, 192, 216, and 240 h postdose; a fifth blood sample was collected for plasma metabolite profiling at predose and 1, 2, 4, 6, 12, 24, 48, 72, 96, 120, and 168 h postdose. Feces and urine were collected predose (feces within 48 h and urine within 24 h prior to dosing), 0–24 h (urine from 0–12 and 12–24 h), and then at 24-hour intervals up to 240 h postdose or until a discharge criterion was met. […] These 2 participants continued with at-home fecal sample collections. One participant provided fecal samples until Day 13 (264–288 h interval) and one participant provided fecal samples until Day 19 (408–432 h interval), after which they met a discharge criterion.
# Plasma, whole blood, and urine samples were assayed for mobocertinib, AP32960, and AP32914 concentrations using liquid chromatography-tandem mass spectrometry (Q2 Solutions, Ithaca, New York, USA). The analytical range for each analyte was 0.250 to 500 ng/mL in whole blood and plasma, and 1.00 to 1000 ng/mL in urine. […] Urine and fecal samples were assayed for total radioactivity following the IV dose of [^14C]-mobocertinib in Period 1, and whole blood, plasma, urine, and fecal samples were assayed for total radioactivity following the oral dose of [^14C]-mobocertinib in Period 2 using liquid scintillation counting (LSC; Celerion, Lincoln, Nebraska, USA; LLOQs: Period 1 urine: 0.115–0.118 ng eq/g, feces: 0.720–0.759 ng eq/g; Period 2 whole blood: 87.3–112 ng eq/g, plasma: 116–132 ng eq/mL, urine: 37.8–46.8 ng eq/g, feces: 110–336 ng eq/g across participants). Urine and fecal samples collected in Period 1 that had total radioactivity concentration equivalents below the LLOQ of the Celerion LSC assay were sent to Pharmaron for measurement by AMS (LLOQ: urine: 0.0000253–0.00111 ng eq/g; feces: 0.000404–0.0278 ng eq/g across participants). The LSC and AMS assays were not cross-validated.
# PK parameters for analytes in urine and feces were calculated using SAS Version 9.4 and included the cumulative amounts and percentages of the administered radioactive dose excreted as [^14C]-mobocertinib, [^14C]-AP32960, and [^14C]-AP32914 in urine and feces following IV dosing in Period 1 and oral dosing in Period 2. Renal clearance (CLR) was calculated as the cumulative amount of radiolabeled mobocertinib, AP32960, or AP32914 recovered in urine divided by the plasma AUC to the time of the last common time point at which an analyte was quantifiable in both urine and plasma for individual participants (AUCCLR) following oral dosing of [^14C]-mobocertinib in Period 2. Mass balance was defined as the percentage of total radioactivity recovered in urine and feces combined relative to the total amount of the administered radioactive dose.
# [3] = Period 2, oral solution 160 mg (~100 µCi) [14C]-mobocertinib, geometric mean
Compound,"radioactive dose recovered in urine as mobocertinib, AP32960 and AP32914 combined ([1]; male, human, in vivo, po) [%]","CL renal ([1]; male, human, in vivo, po, 160 mg) [mL/min]","administered radioactive dose unaccounted for ([2]; male, human, in vivo, po)","cumulative percentage of the radioactive dose recovered in feces (total radioactivity) ([2]; male, human, in vivo, po) [%]","cumulative percentage of the radioactive dose recovered in urine (total radioactivity) ([2]; male, human, in vivo, po) [%]","radioactive dose recovered in urine as mobocertinib, AP32960 and AP32914 combined ([1]; Period 2, oral solution 160 mg [14C]-mobocertinib) [%]","total oral radioactive dose recovered in urine as analyte ([1]; Period 2, oral solution 160 mg [14C]-mobocertinib, geometric mean) [%]","cumulative percentage of the radioactive dose recovered in feces (total radioactivity) [2, 3] [%]","cumulative percentage of the radioactive dose recovered in urine (total radioactivity) [2, 3] [%]","cumulative percentage of the radioactive dose recovered in urine and feces combined ([2]; Period 2, oral solution 160 mg (~100 µCi) [14C]-mobocertinib, geometric mean, 432-hour collection interval) [%]"
C=CC(=O)Nc1cc(Nc2ncc(C(=O)OC(C)C)c(-c3cn(C)c4ccccc34)n2)c(OC)cc1N(C)CCN(C)C [Mobocertinib],1.13,11,Approximately 20%,76.0,3.57,,,,,
[^14C]-mobocertinib,,,,,,1.13,0.39,76.0,3.57,79.6
